Experimental data as given in ChEMBL document CHEMBL3596111, “Synthesis and evaluation of the anti-nociceptive and anti-inflammatory activity of 4-aminoquinoline derivatives” (Bioorg Med Chem, 2015).
The source made the active and inactive calls. The calls are words filed in the database; no cut-off is given here.

How the values were obtained:
Mus musculus [1] = assay: Anti-nociceptive activity in ip dosed Swiss mouse assessed as inhibition of acetic acid-induced writhing dosed 40 mins before acetic acid injection and measured over 25 mins; type: functional; conditions: read-out: ID50 (the source's name)
Mus musculus [2] = assay: Anti-nociceptive activity in ip dosed Swiss mouse assessed as inhibition of acetic acid-induced writhing dosed 40 mins before acetic acid injection and measured over 25 mins relative to control; type: functional
Mus musculus [3] = assay: Anti-nociceptive activity in Swiss mouse assessed as reduction in time spent in licking injected paw during neurogenic phase at 100 umol/kg, ip dosed 40 mins before formalin injection; type: functional, organism-based
Mus musculus [4] = assay: Anti-nociceptive activity in Swiss mouse assessed as reduction in time spent in licking injected paw during inflammatory phase at 100 umol/kg, ip dosed 40 mins before formalin injection; type: functional, organism-based
Mus musculus [5] = assay: Anti-nociceptive activity in Swiss mouse assessed as reduction in paw licking response during inflammatory phase at 10 umol/kg, ip dosed 40 mins before formalin injection; type: functional
Mus musculus [6] = assay: Anti-inflammatory activity in Swiss mouse assessed as inhibition of zymosan-induced peritonitis by measuring reduction in leukocyte migration at 10 umol/kg, ip administered 30 min before the zymosan injection; type: functional
Mus musculus [7] = assay: Anti-inflammatory activity in Swiss mouse assessed as inhibition of zymosan-induced peritonitis by measuring reduction in leukocyte migration at 100 umol/kg, ip administered 30 min before the zymosan injection; type: functional
Mus musculus [8] = assay: Anti-nociceptive activity in Swiss mouse assessed as reduction in paw licking response during inflammatory phase at 100 umol/kg, ip dosed 40 mins before formalin injection; type: functional
Rattus norvegicus [9] = assay: Anti-inflammatory activity in Wistar rat model complete Freund's adjuvant-induced arthritis assessed as reduction in paw edema at 100 umol/kg, ip dosed from day 14 to day 21 after immunization and measured on day 17; type: functional, organism-based
Rattus norvegicus [10] = assay: Anti-inflammatory activity in Wistar rat model complete Freund's adjuvant-induced arthritis assessed as reduction in paw edema at 100 umol/kg, ip dosed from day 14 to day 21 after immunization and measured on until day of sacrifice; type: functional, organism-based
Rattus norvegicus [11] = assay: Hepatotoxicity in Wistar rat model complete Freund's adjuvant-induced arthritis assessed as effect on serum ALT level at 100 umol/kg, ip dosed from day 14 to day 21 after immunization; type: toxicity, organism-based; conditions: in vivo
Rattus norvegicus [12] = assay: Toxicity in Wistar rat model complete Freund's adjuvant-induced arthritis assessed as effect on spleen weight at 100 umol/kg, ip dosed from day 14 to day 21 after immunization; type: organism-based; conditions: in vivo
Rattus norvegicus [13] = assay: Hepatotoxicity in Wistar rat model complete Freund's adjuvant-induced arthritis assessed as effect on serum AST level at 100 umol/kg, ip dosed from day 14 to day 21 after immunization; type: toxicity, organism-based; conditions: in vivo
Rattus norvegicus [14] = assay: Renal toxicity in Wistar rat model complete Freund's adjuvant-induced arthritis assessed as effect on creatinine levels at 100 umol/kg, ip dosed from day 14 to day 21 after immunization; type: organism-based; conditions: in vivo
Rattus norvegicus [15] = assay: Renal toxicity in Wistar rat model complete Freund's adjuvant-induced arthritis assessed as effect on urea levels at 100 umol/kg, ip dosed from day 14 to day 21 after immunization; type: organism-based; conditions: in vivo
Rattus norvegicus [16] = assay: Anti-inflammatory activity in Wistar rat model complete Freund's adjuvant-induced arthritis assessed as reduction in paw edema at 5 umol/kg, ip dosed from day 14 to day 21 after immunization and measured on day 16; type: functional, organism-based

SMILES | ED50 (Mus musculus [1]) [µmol/kg] | Emax (Mus musculus [2]) [%] | Activity (Mus musculus [3]) | Activity (Mus musculus [4]) | also measured
NCCNCCNc1cc(C(F)(F)F)nc2ccccc12 | 26.6 | 95.1 | Active | Active | 
COc1ccc2c(c1)c(CC(=O)O)c(C)n2C(=O)c1ccc(Cl)cc1 [INDOMETHACIN] |  |  |  |  | inhibition in vivo at 10 µmol/kg (Mus musculus [5]): 50.8%; inhibition in vivo at 10 µmol/kg (Mus musculus [6]): 75.8%
NCCNCCNc1ccnc2cc(C(F)(F)F)ccc12 | 15.3 | 96.7 | Active | Active | inhibition in vivo at 100 µmol/kg (Mus musculus [7]): 59.1%; inhibition in vivo at 100 µmol/kg (Mus musculus [8]): 89.6%; Activity (Rattus norvegicus [9]): Active; Activity (Rattus norvegicus [10]): Active; Activity (Rattus norvegicus [11]): Non-toxic; Activity (Rattus norvegicus [12]): Non-toxic; Activity (Rattus norvegicus [13]): Non-toxic; Activity (Rattus norvegicus [14]): Non-toxic; Activity (Rattus norvegicus [15]): Non-toxic
C[C@@H]1C[C@H]2[C@@H]3CCC4=CC(=O)C=C[C@]4(C)[C@@]3(F)[C@@H](O)C[C@]2(C)[C@@]1(O)C(=O)CO |  |  |  |  | Activity (Rattus norvegicus [16]): Active
NCCNCCNc1ccnc2cc(Cl)ccc12 | 39.4 | 86.4 | Active | Active | 
Cc1c(N(C)CS(=O)(=O)O)c(=O)n(-c2ccccc2)n1C [METAMIZOLE] | 36.8 | 74.8 |  |  | 
